This note sets out measurements from article PMC10572855, “Phenotypic Test of Benzo[4,5]imidazo[1,2-c]pyrimidinone-Based Nucleoside and Non-Nucleoside Derivatives against DNA and RNA Viruses, Including Coronaviruses” (International Journal of Molecular Sciences, 2023).

Read-outs that look alike come from different tables or passages of the source.

The test system of one data set is HCoV 229E. Kind of data set: Cytopathic effect reduction, HCoV 229E. The class given is cell-based, Human coronavirus 229E. The conditions noted are these: reduction of virus-induced cytopathic effect by 50%, virus input 100 TCID50, read-out: Antiviral Activity (EC50) HCoV 229E. In general terms: Damage to the host cells serves as the signal in cytopathic effect assays.

A further data set concerns HCoV OC43. Kind of data set: Cytopathic effect reduction, HCoV OC43. It is filed as cell-based, Human coronavirus OC43. The conditions noted are these: reduction of virus-induced cytopathic effect by 50%, virus input 100 TCID50, read-out: Antiviral Activity (EC50) HCoV OC43.
The next data set deals with HCoV NL63. The data set can be described thus: Cytopathic effect reduction, HCoV NL63. The class given is cell-based, Human coronavirus NL63. The conditions noted are these: reduction of virus-induced cytopathic effect by 50%, virus input 100 TCID50, read-out: Antiviral Activity (EC50) HCoV NL63.
Another data set deals with RSV (Long). Kind of data set: Cytopathic effect reduction, RSV (Long). The class given is cell-based, Respiratory syncytial virus. The conditions noted are these: reduction of virus-induced cytopathic effect by 50%, virus input 100 TCID50, read-out: Antiviral Activity (EC50) RSV Long.
Data set [1] is described as follows: Cytotoxicity in HEL299 cells, MTS assay. It is filed as cell-based, Human. The conditions noted are these: human, HEL299 cells, cell growth reduced by 50%. For orientation: Formazan colour is commonly taken as a measure of viable cells.
Protocol: (§1) Cells were seeded at a rate of 5 × 10^3 cells/well into 96-well plates and allowed to proliferate for 24 h. Then, a medium containing different concentrations of the test compounds, starting at 100 mM, was added. After 3 days of incubation at 37 °C, the cell count was determined with a Beckman Coulter counter or, alternatively, cell viability was determined with the colorimetric formazan-based MTS assay. […] The cytotoxic effects of the compounds were also assessed by evaluating the MCC (minimum cytotoxic concentration that causes a microscopically detectable alteration of cell morphology).
Data set [2] in a line: Cytotoxicity in Huh7 cells, MTS assay. The class given is cell-based, Human. The conditions noted are these: human, Huh7 cells, cell growth reduced by 50%.
Protocol: as §1
Another data set deals with HEL299 cells. Kind of data set: Cytotoxicity in HEL299 cells, MTS assay. The class given is cell-based, Human. The conditions noted are these: cell growth reduced by 50%.
The test system of another data set is Huh7 cells. Kind of data set: Cytotoxicity in Huh7 cells, MTS assay. It is filed as cell-based, Human. The conditions noted are these: cell growth reduced by 50%.
Where [3] appears, read: human respiratory syncytial virus.

Broadly, the EC50 is the concentration at which the effect is half-maximal. As usually defined, the CC50 is the concentration at which the toxic effect on the cells reaches its halfway point. High values mean better tolerance by the cells, low ones harm at low concentration. Regarding `O=c1n([C@H]2C[C@H](O)[C@@H](CO)O2)ccc2nc3cc(O)ccc3n12` [Compound 2a, 7-hydroxy-2-((2R,4S,5R)-4-hydroxy-5-(hydroxymethyl)tetrahydrofuran-2-yl)benzo[4,5]imidazo[1,2-c]pyrimidin-1(2H)-one], the 50% effective concentration (EC50) in the data set with HCoV 229E (Human coronavirus 229E) was over 100 µM; in the data set with HCoV OC43 (Betacoronavirus 1, OC43), over 100 µM; in the data set with HCoV NL63 (Human coronavirus NL63) it was over 100 µM; with RSV (Long) (setting [3]), over 100 µM. Further, the CC50 at 3 days in data set [1] and in data set [2] was over 100 µM throughout.

Take `O=c1n([C@@H]2O[C@H](CO)[C@@H](O)[C@H]2O)ccc2nc3cc(O)ccc3n12` [Compound 2b, 2-((2R,3R,4S,5R)-3,4-dihydroxy-5-(hydroxymethyl)tetrahydrofuran-2-yl)-7-hydroxybenzo[4,5]imidazo[1,2-c]pyrimidin-1(2H)-one]: the concentration for a half-maximal effect (EC50) with HCoV 229E (Human coronavirus 229E) is over 100 µM; in the data set with HCoV OC43 (Betacoronavirus 1, OC43) it was over 100 µM; in the data set on HCoV NL63 (Human coronavirus NL63), over 100 µM; in the data set with RSV (Long) (setting [3]), over 100 µM. Besides, the half-maximal cytotoxic concentration (CC50) at 3 days in data set [1] and in data set [2] was over 100 µM throughout.

In the case of `CCCCOc1ccc2c(c1)nc1ccn([C@H]3C[C@H](O)[C@@H](COC(c4ccccc4)(c4ccc(OC)cc4)c4ccc(OC)cc4)O3)c(=O)n12` [Compound 4a, 2-((2R,4S,5R)-5-((bis(4-methoxyphenyl)(phenyl)methoxy)methyl)-4-hydroxytetrahydrofuran-2-yl)-7-butoxybenzo[4,5]imidazo[1,2-c]pyrimidin-1(2H)-one], the EC50 in the data set with HCoV 229E, in the data set on HCoV OC43, with HCoV NL63 and with RSV (Long) was over 100 µM throughout. In addition, the half-maximal cytotoxic concentration (CC50) with HEL299 cells and with Huh7 cells was over 40 µM in each case.

With `CCCCCCOc1ccc2c(c1)nc1ccn([C@H]3C[C@H](O)[C@@H](COC(c4ccccc4)(c4ccc(OC)cc4)c4ccc(OC)cc4)O3)c(=O)n12` [Compound 4b, 2-((2R,4S,5R)-5-((bis(4-methoxyphenyl)(phenyl)methoxy)methyl)-4-hydroxytetrahydrofuran-2-yl)-7-(hexyloxy)benzo[4,5]imidazo[1,2-c]pyrimidin-1(2H)-one], the EC50 in the data set with HCoV 229E, in the data set with HCoV OC43, with HCoV NL63 and with RSV (Long) was over 100 µM throughout. The 50% cytotoxic concentration (CC50) in the data set with HEL299 cells and with Huh7 cells was over 100 µM throughout.

For the molecule `CCCCCCCCOc1ccc2c(c1)nc1ccn([C@H]3C[C@H](O)[C@@H](COC(c4ccccc4)(c4ccc(OC)cc4)c4ccc(OC)cc4)O3)c(=O)n12` [Compound 4c, 2-((2R,4S,5R)-5-((bis(4-methoxyphenyl)(phenyl)methoxy)methyl)-4-hydroxytetrahydrofuran-2-yl)-7-(octyloxy)benzo[4,5]imidazo[1,2-c]pyrimidin-1(2H)-one], the EC50 in the data set on HCoV 229E, in the data set on HCoV OC43, in the data set with HCoV NL63 and in the data set on RSV (Long) was over 100 µM each time. Also, the results for the cytotoxic concentration (CC50) in the data set with HEL299 cells and with Huh7 cells were over 40 µM and over 100 µM, respectively.

`CCCCCCCCCCOc1ccc2c(c1)nc1ccn([C@H]3C[C@H](O)[C@@H](COC(c4ccccc4)(c4ccc(OC)cc4)c4ccc(OC)cc4)O3)c(=O)n12` [Compound 4d, 2-((2R,4S,5R)-5-((bis(4-methoxyphenyl)(phenyl)methoxy)methyl)-4-hydroxytetrahydrofuran-2-yl)-7-(decyloxy)benzo[4,5]imidazo[1,2-c]pyrimidin-1(2H)-one]: the EC50 with HCoV 229E, in the data set on HCoV OC43, with HCoV NL63 and with RSV (Long) was over 100 µM in each case. Further, the CC50 in the data set on HEL299 cells and in the data set with Huh7 cells was over 40 µM in each case.

With `CCCCCCCCCCCCOc1ccc2c(c1)nc1ccn([C@H]3C[C@H](O)[C@@H](COC(c4ccccc4)(c4ccc(OC)cc4)c4ccc(OC)cc4)O3)c(=O)n12` [Compound 4e, 2-((2R,4S,5R)-5-((bis(4-methoxyphenyl)(phenyl)methoxy)methyl)-4-hydroxytetrahydrofuran-2-yl)-7-(dodecyloxy)benzo[4,5]imidazo[1,2-c]pyrimidin-1(2H)-one], the half-maximal effective concentration (EC50) in the data set on HCoV 229E, in the data set on HCoV OC43, in the data set on HCoV NL63 and with RSV (Long) was over 100 µM throughout. Moreover, the CC50 with HEL299 cells and in the data set on Huh7 cells was over 100 µM each time.

`CCCCOc1ccc2c(c1)nc1ccn([C@@H]3O[C@H](COC(c4ccccc4)(c4ccc(OC)cc4)c4ccc(OC)cc4)[C@@H](O)[C@H]3O)c(=O)n12` [Compound 5a, 2-((2R,3R,4S,5R)-5-((bis(4-methoxyphenyl)(phenyl)methoxy)methyl)-3,4-dihydroxytetrahydrofuran-2-yl)-7-butoxybenzo[4,5]imidazo[1,2-c]pyrimidin-1(2H)-one]: the EC50 in the data set on HCoV 229E, in the data set on HCoV OC43, in the data set on HCoV NL63 and in the data set with RSV (Long) was over 100 µM throughout. For the same molecule, the half-maximal cytotoxic concentration (CC50) with HEL299 cells and in the data set with Huh7 cells was over 100 µM in each case.

With `CCCCCCOc1ccc2c(c1)nc1ccn([C@@H]3O[C@H](COC(c4ccccc4)(c4ccc(OC)cc4)c4ccc(OC)cc4)[C@@H](O)[C@H]3O)c(=O)n12` [Compound 5b, 2-((2R,3R,4S,5R)-5-((bis(4-methoxyphenyl)(phenyl)methoxy)methyl)-3,4-dihydroxytetrahydrofuran-2-yl)-7-(hexyloxy)benzo[4,5]imidazo[1,2-c]pyrimidin-1(2H)-one], the EC50 with HCoV 229E was over 100 µM; in the data set with HCoV OC43 it was over 50 µM; with HCoV NL63, over 100 µM; in the data set with RSV (Long) it was over 100 µM. Further, the CC50 was over 100 µM in the data set on HEL299 cells and over 10 µM in the data set with Huh7 cells.

Regarding `CCCCCCCCOc1ccc2c(c1)nc1ccn([C@@H]3O[C@H](COC(c4ccccc4)(c4ccc(OC)cc4)c4ccc(OC)cc4)[C@@H](O)[C@H]3O)c(=O)n12` [Compound 5c, 2-((2R,3R,4S,5R)-5-((bis(4-methoxyphenyl)(phenyl)methoxy)methyl)-3,4-dihydroxytetrahydrofuran-2-yl)-7-(octyloxy)benzo[4,5]imidazo[1,2-c]pyrimidin-1(2H)-one], the concentration for a half-maximal effect (EC50) with HCoV 229E, with HCoV OC43, in the data set with HCoV NL63 and in the data set on RSV (Long) was over 100 µM each time. In addition, the CC50 was over 100 µM in the data set on HEL299 cells and over 10 µM in the data set with Huh7 cells.

On to `CCCCCCCCCCOc1ccc2c(c1)nc1ccn([C@@H]3O[C@H](COC(c4ccccc4)(c4ccc(OC)cc4)c4ccc(OC)cc4)[C@@H](O)[C@H]3O)c(=O)n12` [Compound 5d, 2-((2R,3R,4S,5R)-5-((bis(4-methoxyphenyl)(phenyl)methoxy)methyl)-3,4-dihydroxytetrahydrofuran-2-yl)-7-(decyloxy)benzo[4,5]imidazo[1,2-c]pyrimidin-1(2H)-one], for which the EC50 in the data set with HCoV 229E, with HCoV OC43, in the data set with HCoV NL63 and in the data set on RSV (Long) was over 100 µM in each case. Further, the CC50 with HEL299 cells and with Huh7 cells was over 100 µM throughout.

Regarding `CCCCCCCCCCCCOc1ccc2c(c1)nc1ccn([C@@H]3O[C@H](COC(c4ccccc4)(c4ccc(OC)cc4)c4ccc(OC)cc4)[C@@H](O)[C@H]3O)c(=O)n12` [Compound 5e, 2-((2R,3R,4S,5R)-5-((bis(4-methoxyphenyl)(phenyl)methoxy)methyl)-3,4-dihydroxytetrahydrofuran-2-yl)-7-(dodecyloxy)benzo[4,5]imidazo[1,2-c]pyrimidin-1(2H)-one], the concentration for a half-maximal effect (EC50) in the data set on HCoV 229E, with HCoV OC43, in the data set with HCoV NL63 and in the data set with RSV (Long) was over 100 µM in each case. The half-maximal cytotoxic concentration (CC50) in the data set on HEL299 cells is over 100 µM; with Huh7 cells, over 40 µM.

On to `CCCCOc1ccc2c(c1)nc1cc[nH]c(=O)n12` [Compound 6a, 7-butoxybenzo[4,5]imidazo[1,2-c]pyrimidin-1(2H)-one], for which the EC50 in the data set with HCoV 229E (Human coronavirus 229E) was over 100 µM; in the data set with HCoV OC43 (Betacoronavirus 1, OC43) it was over 100 µM; in the data set with HCoV NL63 (Human coronavirus NL63) it was over 100 µM; in the data set on RSV (Long) (setting [3]), over 100 µM. The cytotoxic concentration (CC50) at 3 days in data set [1] and in data set [2] was over 100 µM throughout.

Consider `CCCCCCOc1ccc2c(c1)nc1cc[nH]c(=O)n12` [Compound 6b, 7-(hexyloxy)benzo[4,5]imidazo[1,2-c]pyrimidin-1(2H)-one], for which the EC50 in the data set on HCoV 229E (Human coronavirus 229E) is over 100 µM; in the data set on HCoV OC43 (Betacoronavirus 1, OC43) it was over 100 µM; with HCoV NL63 (Human coronavirus NL63), over 100 µM; with RSV (Long) (setting [3]), over 100 µM. Further, the half-maximal cytotoxic concentration (CC50) at 3 days in data set [1] and in data set [2] was over 100 µM each time.

Turning to `CCCCCCCCOc1ccc2c(c1)nc1cc[nH]c(=O)n12` [Compound 6c, 7-(octyloxy)benzo[4,5]imidazo[1,2-c]pyrimidin-1(2H)-one], the 50% effective concentration (EC50) was over 100 µM in the data set with HCoV 229E (Human coronavirus 229E); over 100 µM with HCoV OC43 (Betacoronavirus 1, OC43); over 100 µM with HCoV NL63 (Human coronavirus NL63); over 100 µM in the data set with RSV (Long) (setting [3]). For the same molecule, the CC50 at 3 days in data set [1] and in data set [2] was over 100 µM in each case.
